US11491127B2, “Therapeutic use of compounds” (UCL BUSINESS LTD, priority 2010, dated 2022)
Like-named read-outs stand apart in the source and are kept apart here.

Columns and labels:
[1] = test system: self-sustaining status epilepticus in Sprague Dawley rats; assay: In vivo status epilepticus (perforant path stimulation); parameters: species or system rat; details: for effectiveness in status epilepticus model: previously found by the inventors
Protocol: This method has been described in detail previously (Walker et al., 1999). In brief, male Sprague Dawley rats […] were anesthetized with 1-2% isoflurane in O2. An earth electrode was positioned subcutaneously, and a monopolar recording electrode was implanted stereotactically into the right hippocampus (coordinates, 2.5 mm lateral and 4 mm caudal from bregma). A bipolar stimulating electrode was implanted in the right hemisphere and advanced into the angular bundle (coordinates, 4.4 mm lateral and 8.1 mm caudal from bregma) to stimulate the perforant path. The depths of the electrodes were adjusted to maximize the slope of the dentate granule cell field potential (Guo et al., 1999). The electrodes were held in place with dental acrylic and skull screws. The animals were allowed to recover from anaesthesia. Seven days later, the perforant path was electrically stimulated with 4-5 mA 50 μsec monopolar pulses at 20 Hz for 2 hr; this induced self-sustaining status epilepticus. After 10 min of self-sustaining status epilepticus, compounds or vehicle were administered and the behavioural seizures and EEG were monitored for 3 hours. At this point diazepam (10 mg/kg) was administered to all animals to stop the status epilepticus. Groups were compared by ANOVA followed by post-hoc testing using Tukey test, using SPSS.

[2] = test system: uptake of 3H arachidonic acid / palmitic acid into Dictyostelium cells; assay: Fatty acid uptake (3H radiolabel incorporation into cells); format: cell-based, Dictyostelium discoideum; details: for EC50: Dictyostelium
[3] = test system: inositol levels in Dictyostelium cells; assay: Inositol levels in treated Dictyostelium cells; format: cell-based, Dictyostelium discoideum; details: time period causing phosphoinositide attenuation (9 min)
Protocol: Following a 6 min incubation, labelling solution was removed and cells were lysed in acidified methanol and phospholipids were separated as previously detailed (Williams et al., 1999). Phospholipid labelling was quantified using a Typhoon phosphor-imager. Even loading was determined using total lipid stain with copper sulphate. Inositol levels were measured from five hour developed cells (similar to phospholipid labelling), following lyophilisation, as previously described (Maslanski & Busa, 1990).

[4] = test system: lipid droplets in Dictyostelium cells; assay: Bodipy fatty acid lipid droplet accumulation; format: cell-based, Dictyostelium discoideum; details: 0.5 mM VPA; bodipy-labelled lipid
[5] = test system: Dictyostelium development; assay: Dictyostelium development; format: cell-based, Dictyostelium discoideum; details: concentrations found in plasma of patients (0.28-0.7 mM)
Protocol: Screening of a REMI library was carried out as previously described (Kuspa & Loomis, 2006) using A×2 background, with VPA resistant mutants selected for the ability to develop in the presence of 1 mM VPA on R. planticola. Identification of the ablated gene, enabled the identified PLAa (DDB_G0278525; SEQ ID NO: 16) to be recapitulated using by homologous recombination of a knockout cassette. Primers used for amplifying region within the open reading frame of the gene were (5′ […] (SEQ ID NO: 17) and 3′ […] (SEQ ID NO: 18), cloned by pCR2.1 TOPO (Invitrogen Ltd)), cloned into pUC19 using EcoRI digestion, and Sinai digested fragment from pBLPblp (Falx et al, 2004) was inserted into the EcoRV site of the insert. Genetic ablation was confirmed by PCR analysis. […] Development images were observed using a Leica CLS 150× microscope and images recorded using QICAM FAST 1394 camera. Fatty acid activation was determined by the method established by Wilson et al. (Wilson et al, 1982) with slight modifications. […] The organic phase was discarded and the aqueous phase was washed six times with 300 μl of n-heptane to remove non-activated fatty acids before the radioactivity of the acyl-CoA thioester remaining in the aqueous phase was determined in 2 ml of Lumasafe™ Plus fluid (Lumac LSC, Groningen, The Netherlands) in a scintillation counter.

[6] = Table 2; cited from earlier work
[7] = cited from earlier work

CCCC(CCC)C(=O)O [VPA, 2-propylpentanoic acid, reference compound]
seizure control in words ([1]; 400 mg/kg, 3 hour test period): strongly attenuated seizures | animals in which seizures completely stopped ([1]; 400 mg/kg, after 2 hours, 7 animals per group): did not terminate the seizures in any | spike amplitude ([1]; 400 mg/kg, first hour): 75.2±9.2% | spike amplitude ([1]; 400 mg/kg, second hour): 61.1±8.3% | spike amplitude ([1]; 400 mg/kg, third hour): 55.1±6.6% | effectiveness in status epilepticus model ([1]; high dose 600 mg/kg): effective | effectiveness in status epilepticus model ([1]; lower dose 400 mg/kg): partial effectiveness | EC50 ([2]; 3H arachidonic acid, read-out: EC50 of increase in uptake of AA): 47 µM | EC50 ([2]; 3H palmitic acid, read-out: EC50 of increase in uptake of palmitic acid): 160 µM | fatty acid uptake in cell lines lacking fcsA ([2]; fcsA -/- cells, 0.5 mM VPA): increase | reduction in inositol levels [3]: no significant reduction | intensity and diameter of fluorescent lipid droplets compared to untreated cells [4]: increase | effect on development of Dictyostelium [5]: inhibits the development | pKa [6]: 4.6 | concentration in plasma in therapeutic use ([7]; DSM IV, 2000): 400 to 700 µM | concentration in plasma of patients receiving treatment ([7]; Silva et al., 2008): 280 to 700 µM
